# Source: patent US20090088380A1, “GHRH ANALOGS AND THERAPEUTIC USES THEREOF” (priority 2007, published 2009)
# Non-standard residues stand in square brackets, D forms with d. Residues, ends and D or L forms follow the SMILES beside them.
# Key:
# Type in all cases: in vivo, human
# [1] = tested on: malnourished subjects with CKD; assay: Phase II CKD: abnormal and clinically significant clinical chemistry and blood gas values; conditions: for Subjects with abnormal and clinically significant ALT (%) / Subjects with abnormal and clinically significant AST (%) / Subjects with abnormal and clinically significant Calcium (%) / Subjects with abnormal and clinically significant Chloride (%) / Subjects with abnormal and clinically significant Creatinine (%) / Subjects with abnormal and clinically significant GGT (%) / Subjects with abnormal and clinically significant Phosphate (%) / Subjects with abnormal and clinically significant Potassium (%) / Subjects with abnormal and clinically significant Sodium (%) / Subjects with abnormal and clinically significant Urea (%): safety analysis set
# From the text: The number of subjects with abnormal and clinically significant laboratory values at baseline and at Day 28 is presented in Table 35 (haematology) and Table 36 clinical chemistry. Overall, the number of subjects with abnormal and clinically significant laboratory values was similar in the GHRH(1-29)NH2 synthetic analog and placebo groups. No clear trends were observed.
# healthy male volunteers = assay: Phase I/II study in healthy male volunteers: safety and tolerability
# Experimental: In order to evaluate the safety of the drug, all reported adverse events were considered during the study. The effects of the drug exerted specifically on the liver, renal, thyroid, cardiac and haematological functions were evaluated. The MED was defined as the dose of the GHRH(1-29)NH2 synthetic analog lower than the subsequent dose that produced the best secretion profile of GH.
# It was a crossover single-blinded Phase I/II trial of escalating doses of the GHRH(1-29)NH2 synthetic analog controlled versus placebo. Ten healthy middle-aged male volunteers, between 50 and 55 years old, were recruited. All 10 subjects received a single subcutaneous dose of the GHRH(1-29)NH2 synthetic analog (reconstituted in water for injection), per day for 5 days, in a dose range from 5 to 25 μg/kg of body weight (lower than the maximal dose used to treat GH deficiency in children, which was 30 μg/kg of body weight).
# After signing the informed consent form, all volunteers were clinically evaluated by the investigator and a chest x-ray and basal electrocardiogram and routine laboratory tests were performed. The analysis included: haemogram (hematocrit, haemoglobin, complete blood cell count, mean cell volume (MCV), mean corpuscular haemoglobin concentration (MCHC) and platelet count), liver function tests (aminotransferases, total proteins, albumin, alkaline phosphatase, billirubin, lactate dehydrogenase and prothrombin time), biochemistry (creatinine, urea, sodium, potassium, calcium, phosphorus, fasting glucose and postprandial glucose), urinalysis (pH, glucose, blood, proteins, and leukocytes), triiodothyronine, thyroxin and thyroid stimulating hormone (TSH), serology, basal level of IGF-1 and urine drug abuse screening.
# Once the volunteers were considered eligible, they were hospitalized for a period of 5 consecutive days. On Day 0 of admission successive samples of blood were taken to perform the basal secretion profile of GH during 24 hours. During 5-day hospitalization period, after the initial blood sampling to determine fasting glucose level, the appropriate dose of the GHRH(1-29)NH2 synthetic analog or placebo was administered and multiple samplings were performed to assess the profile of GH, postprandial glucose level and electrocardiogram after 60 minutes of the application of the GHRH(1-29)NH2 synthetic analog/placebo. Eight hours after drug administration, samples were obtained to determine IGF-1 level, thyroid hormones and routine analysis. After 30 days of admission, all the volunteers returned for new clinical evaluation to record any adverse events that could have occurred from the last day of hospitalization period and to take a blood sample for later determination of anti-GHRH(1-29)NH2 synthetic analog antibodies.
# [2] = tested on: malnourished subjects with CKD; assay: Phase II CKD: hormones (TSH, free thyroxin, testosterone, oestradiol); conditions: ITT
# Experimental: A blood sample was taken at screening for analysis of TSH and free thyroxin. […] The hormones testosterone (nmol/L) and oestradiol (nmol/L) were measured at baseline and on Day 28 because those could be affected by GH and could lead to secondary changes in body composition. Samples were analysed locally.
# [3] = tested on: IGF-1, IGFBP-1 and IGFBP-3; assay: Phase II CKD: total IGF-1, IGFBP-1 and IGFBP-3; conditions: day 42
# [4] = tested on: malnourished subjects with CKD; assay: Phase II CKD: abnormal findings on physical examination; conditions: safety analysis set
# From the text: There were no body systems in which there was a trend towards change in physical examination. Any physical examination findings after the screening visit were reported as AEs.
# [5] = all volunteers, throughout the study
# [6] = Day 0, listed as GHRH(1-29)NH2 synthetic analog
# [7] = Day 28, listed as GHRH(1-29)NH2 synthetic analog
structure (smiles),measurement,setting,value
"CC[C@H](C)[C@H](NC(=O)[C@H](C)NC(=O)[C@H](CC(=O)O)NC(=O)[C@@H](C)NC(=O)[C@@H](N)Cc1ccc(O)cc1)C(=O)N[C@@H](Cc1ccccc1)C(=O)N[C@H](C(=O)N[C@@H](CC(N)=O)C(=O)N[C@@H](CO)C(=O)N[C@H](Cc1ccc(O)cc1)C(=O)N[C@@H](CCCNC(=N)N)C(=O)N[C@@H](CCCCN)C(=O)N[C@H](C(=O)N[C@@H](CC(C)C)C(=O)N[C@H](C)C(=O)N[C@@H](CCC(N)=O)C(=O)N[C@@H](CC(C)C)C(=O)N[C@@H](CO)C(=O)N[C@@H](C)C(=O)N[C@@H](CCCNC(=N)N)C(=O)N[C@@H](CCCCN)C(=O)N[C@@H](CCCCN)C(=O)N[C@@H](CC(C)C)C(=O)N[C@@H](CCC(N)=O)C(=O)N[C@@H](CC(=O)O)C(=O)N[C@H](C(=O)N[C@@H](CCSC)C(=O)N[C@@H](CO)C(=O)N[C@@H](CCCNC(=N)N)C(N)=O)[C@@H](C)CC)C(C)C)[C@@H](C)O [GHRH analog #5, [D-Ala^2, D-Tyr^10, D-Ala^15, Lys^22] hGHRH(1-29)-NH2] (H-Y[dA]DAIFTNS[dY]RKVL[dA]QLSARKKLQDIMSR-NH2)",Subjects with abnormal and clinically significant ALT (%),[1]; Baseline,(0.0%)
same,Subjects with abnormal and clinically significant AST (%),[1]; Baseline,(0.0%)
same,Subjects with abnormal and clinically significant Calcium (%),[1]; Baseline,(0.0%)
same,Subjects with abnormal and clinically significant Chloride (%),[1]; Baseline,(0.0%)
same,Subjects with abnormal and clinically significant Creatinine (%),[1]; Baseline,(100.0%)
same,Subjects with abnormal and clinically significant GGT (%),[1]; Baseline,(0.0%)
same,Subjects with abnormal and clinically significant Phosphate (%),[1]; Baseline,(7.7%)
same,Subjects with abnormal and clinically significant Potassium (%),[1]; Baseline,(30.8%)
same,Subjects with abnormal and clinically significant Sodium (%),[1]; Baseline,(0.0%)
same,Subjects with abnormal and clinically significant Urea (%),[1]; Baseline,(100.0%)
same,Number of subjects with abnormal and clinically significant bicarbonate,[1]; Day 28,3 subjects
same,Number of subjects with abnormal and clinically significant calcium,[1]; Day 28,3 subjects
same,Subjects with abnormal and clinically significant ALT (%),[1]; Day 28,(8.3%)
same,Subjects with abnormal and clinically significant AST (%),[1]; Day 28,(8.3%)
same,Subjects with abnormal and clinically significant Calcium (%),[1]; Day 28,(25.0%)
same,Subjects with abnormal and clinically significant Chloride (%),[1]; Day 28,(0.0%)
same,Subjects with abnormal and clinically significant Creatinine (%),[1]; Day 28,(100.0%)
same,Subjects with abnormal and clinically significant GGT (%),[1]; Day 28,(8.3%)
same,Subjects with abnormal and clinically significant Phosphate (%),[1]; Day 28,(16.7%)
same,Subjects with abnormal and clinically significant Potassium (%),[1]; Day 28,(25.0%)
same,Subjects with abnormal and clinically significant Sodium (%),[1]; Day 28,(0.0%)
same,Subjects with abnormal and clinically significant Urea (%),[1]; Day 28,(100.0%)
same,Number of subjects with abnormal and clinically significant bicarbonate,[1]; baseline,2 subjects
same,Number of subjects with abnormal and clinically significant calcium,[1]; baseline,none
same,Serious adverse events,"healthy male volunteers; 5 to 25 μg/kg sc, healthy male volunteers",no serious adverse events were reported
same,"Aminotransferase elevation, one case",healthy male volunteers; Day 1 to Day 5,less than 2.5 times the upper normal limit
same,"Neutrophils, neutropenia case","healthy male volunteers; Day 2, after 10 μg/kg dose","1,406 neutrophyles/mm3"
same,"White blood cells, leukopenia case","healthy male volunteers; Day 2, after 10 μg/kg dose","3,800 WBC/mm3"
same,"Eosinophils, eosinophilia in one volunteer","healthy male volunteers; Day 5, 5 μg/kg dose",808 eosinophyls/mm3
same,"White blood cells, leukocytosis in one volunteer","healthy male volunteers; Day 5, 5 μg/kg dose","12,400 WBC/mm3"
same,Mean decrease of haematocrit,healthy male volunteers; [5],10.1±1.9 points
same,Mean decrease of haemoglobin,healthy male volunteers; [5],2.8 ± 0.8 g/dL
same,"Thyroid anomalies, cardiac dysfunction","healthy male volunteers; human, in vivo",Neither thyroid anomalies nor cardiac dysfunction were reported
same,Oestradiol: mean (SD),[2]; Day 0,30.400 (23.333) pg/mL
same,Testosterone: mean (SD),[2]; Day 0,1.550 (1.974) ng/mL
same,Oestradiol: mean (SD),[2]; [6],30.400 pg/mL
same,Testosterone: mean (SD),[2]; [6],1.550 ng/mL
same,Oestradiol: mean (SD),[2]; Day 28,16.281 (10.896) pg/mL
same,Testosterone: mean (SD),[2]; Day 28,1.032 (1.327) ng/mL
same,Oestradiol: mean (SD),[2]; [7],16.281 pg/mL
same,Testosterone: mean (SD),[2]; [7],1.032 ng/mL
same,Median IGF-1 after treatment discontinuation,[3],368.2 ng/mL
same,Subjects with abnormal findings on physical examination: Cardiovascular (%),[4]; Baseline,(46.2%)
same,Subjects with abnormal findings on physical examination: Central nervous system (%),[4]; Baseline,(0.0%)
same,Subjects with abnormal findings on physical examination: Ear (%),[4]; Baseline,(15.4%)
same,Subjects with abnormal findings on physical examination: Gastrointestinal (%),[4]; Baseline,(30.8%)
same,Subjects with abnormal findings on physical examination: Genitourinary (%),[4]; Baseline,(23.1%)
same,Subjects with abnormal findings on physical examination: Musculoskeletal (%),[4]; Baseline,(53.8%)
same,Subjects with abnormal findings on physical examination: Nose and throat (%),[4]; Baseline,(38.5%)
same,Subjects with abnormal findings on physical examination: Other (%),[4]; Baseline,(23.1%)
same,Subjects with abnormal findings on physical examination: Respiratory (%),[4]; Baseline,(0.0%)
same,Subjects with abnormal findings on physical examination: Skin (%),[4]; Baseline,(69.2%)
same,Subjects with abnormal findings on physical examination: Cardiovascular (%),[4]; Day 28,(25.0%)
same,Subjects with abnormal findings on physical examination: Central nervous system (%),[4]; Day 28,(0.0%)
same,Subjects with abnormal findings on physical examination: Ear (%),[4]; Day 28,(16.7%)
same,Subjects with abnormal findings on physical examination: Gastrointestinal (%),[4]; Day 28,(41.7%)
same,Subjects with abnormal findings on physical examination: Genitourinary (%),[4]; Day 28,(16.7%)
same,Subjects with abnormal findings on physical examination: Musculoskeletal (%),[4]; Day 28,(50.0%)
same,Subjects with abnormal findings on physical examination: Nose and throat (%),[4]; Day 28,(41.7%)
same,Subjects with abnormal findings on physical examination: Other (%),[4]; Day 28,(41.7%)
same,Subjects with abnormal findings on physical examination: Respiratory (%),[4]; Day 28,(8.3%)
same,Subjects with abnormal findings on physical examination: Skin (%),[4]; Day 28,(75.0%)
